Measurements: PubChem BioAssay (NCI)
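Compound exposure: 48 hours, 5 concentrations, 96-well plates. The concentration for 50% growth inhibition is given as GI50. TGI marks complete inhibition of growth.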

Legend:
Assay in all cases: DTP human tumour cell line panel, 48 h
UACC-62 melanoma = test system: UACC-62 melanoma
MDA-MB-435 = test system: MDA-MB-435
NCI-H23 lung = test system: NCI-H23 lung
RPMI-8226 leukemia = test system: RPMI-8226 leukemia
NCI-H460 lung = test system: NCI-H460 lung
SK-MEL-28 melanoma = test system: SK-MEL-28 melanoma
SF-295 CNS = test system: SF-295 CNS
SF-539 CNS = test system: SF-539 CNS
SN12C renal = test system: SN12C renal
SK-MEL-5 melanoma = test system: SK-MEL-5 melanoma
PC-3 prostate = test system: PC-3 prostate
COLO 205 colon = test system: COLO 205 colon
MDA-MB-231 breast = test system: MDA-MB-231 breast
HS 578T breast = test system: HS 578T breast
SW-620 colon = test system: SW-620 colon
HCT-116 colon = test system: HCT-116 colon
HL-60(TB) leukemia = test system: HL-60(TB) leukemia
DU-145 prostate = test system: DU-145 prostate
HT29 colon = test system: HT29 colon
NCI-H226 lung = test system: NCI-H226 lung
BT-549 breast = test system: BT-549 breast
MDA-MB-468 breast = test system: MDA-MB-468 breast
KM12 colon = test system: KM12 colon
NCI-H522 lung = test system: NCI-H522 lung
M14 melanoma = test system: M14 melanoma
HCT-15 colon = test system: HCT-15 colon
MCF7 breast = test system: MCF7 breast
IGROV1 ovarian = test system: IGROV1 ovarian
CAKI-1 renal = test system: CAKI-1 renal

In the case of `Cn1cc(-c2cc(N)n3nc(-c4c[nH]c5ccc(Cl)cc45)cc3n2)c2cc(Br)cnc21`, the TGI (UACC-62 melanoma) is reported as 3.6 µM, the GI50 (MDA-MB-435) is reported as 2060 nM and the TGI (MDA-MB-435) is reported as 4.48 µM. For the same compound, the GI50 (NCI-H23 lung) was 2630 nM, the TGI (NCI-H23 lung) was 7.83 µM and the GI50 (RPMI-8226 leukemia) was 3.88 µM. It also gave a TGI (RPMI-8226 leukemia) of 34 µM, a GI50 (NCI-H460 lung) of 1920 nM and a TGI (NCI-H460 lung) of 3.81 µM. It also gave a GI50 (SK-MEL-28 melanoma) of 2100 nM, a TGI (SK-MEL-28 melanoma) of 4.97 µM and a GI50 (SF-295 CNS) of 1840 nM. For the same compound, the TGI (SF-295 CNS) was 4.04 µM, the GI50 (SF-539 CNS) was 1660 nM and the TGI (SF-539 CNS) was 3.22 µM. The GI50 (SN12C renal) was 10.1 µM, the TGI (SN12C renal) was 26.4 µM and the GI50 (SK-MEL-5 melanoma) was 4.35 µM. It also gave a TGI (SK-MEL-5 melanoma) of 17 µM, a GI50 (PC-3 prostate) of 2270 nM and a TGI (PC-3 prostate) of 5.79 µM. It also gave a GI50 (COLO 205 colon) of 2830 nM, a TGI (COLO 205 colon) of 6.04 µM and a GI50 (MDA-MB-231 breast) of 1980 nM. For the same compound, the TGI (MDA-MB-231 breast) was 4.27 µM, the GI50 (HS 578T breast) was 12.6 µM and the TGI (HS 578T breast) was 55.5 µM. The GI50 (SW-620 colon) was 1820 nM, the TGI (SW-620 colon) was 3.5 µM and the GI50 (HCT-116 colon) was 2010 nM. It also gave a TGI (HCT-116 colon) of 4.03 µM, a GI50 (HL-60(TB) leukemia) of 2060 nM and a TGI (HL-60(TB) leukemia) of 5.15 µM. For the same compound, the GI50 (DU-145 prostate) was 3.18 µM, the TGI (DU-145 prostate) was 9.77 µM and the GI50 (HT29 colon) was 1930 nM. The TGI (HT29 colon) was 3.84 µM, the GI50 (NCI-H226 lung) was 2230 nM and the TGI (NCI-H226 lung) was 11.5 µM. It also gave a GI50 (BT-549 breast) of 13.8 µM, a TGI (BT-549 breast) of 28.6 µM and a GI50 (MDA-MB-468 breast) of 1320 nM. For the same compound, the TGI (MDA-MB-468 breast) was 2730 nM, the GI50 (KM12 colon) was 2170 nM and the TGI (KM12 colon) was 4.87 µM. For the same compound, the GI50 (NCI-H522 lung) was 1900 nM, the TGI (NCI-H522 lung) was 3.88 µM and the GI50 (M14 melanoma) was 2370 nM. It also gave a TGI (M14 melanoma) of 5.88 µM, a GI50 (HCT-15 colon) of 1610 nM and a TGI (HCT-15 colon) of 3.02 µM. It also gave a GI50 (MCF7 breast) of 1770 nM, a TGI (MCF7 breast) of 3.31 µM and a GI50 (IGROV1 ovarian) of 1940 nM. It also gave a TGI (IGROV1 ovarian) of 4.47 µM, a GI50 (CAKI-1 renal) of 3.07 µM and a TGI (CAKI-1 renal) of 16.7 µM.
